Reference: article PMC7444660 (ACS chemical neuroscience, 2020)

How the values were obtained:
PDE4D [1] = experiment: PET imaging in monkey brain, baseline and preblock; assay type: in vivo, rhesus monkeys (Macaca mulatta)
PDE4D [2] = molecular target: PDE4D (Homo sapiens, UniProt Q08499); experiment: PET imaging in human brain; assay type: in vivo; conditions: po, read-out: occupancy of the target enzyme
[3] = Radioligand lipophilicity; assay type: physicochemical; conditions: n-octanol/sodium phosphate buffer, pH 7.4
[4] = Mouse iv cassette pharmacokinetics, brain uptake; assay type: in vivo, CD1 mice; conditions: intravenous dosing; SUV = brain Cmax (ng/mL)/dose (mg/kg)/1000
PDE4B1 (S133D) = PDE4B1 (S133D) (Homo sapiens, UniProt Q07343, S133D/S659A/S661A); experiment: PDE4 enzyme inhibition assay, counter-screen; assay type: biochemical
Sequence of PDE4B1 (S133D) (Q07343 whole entry S133D/S659A/S661A): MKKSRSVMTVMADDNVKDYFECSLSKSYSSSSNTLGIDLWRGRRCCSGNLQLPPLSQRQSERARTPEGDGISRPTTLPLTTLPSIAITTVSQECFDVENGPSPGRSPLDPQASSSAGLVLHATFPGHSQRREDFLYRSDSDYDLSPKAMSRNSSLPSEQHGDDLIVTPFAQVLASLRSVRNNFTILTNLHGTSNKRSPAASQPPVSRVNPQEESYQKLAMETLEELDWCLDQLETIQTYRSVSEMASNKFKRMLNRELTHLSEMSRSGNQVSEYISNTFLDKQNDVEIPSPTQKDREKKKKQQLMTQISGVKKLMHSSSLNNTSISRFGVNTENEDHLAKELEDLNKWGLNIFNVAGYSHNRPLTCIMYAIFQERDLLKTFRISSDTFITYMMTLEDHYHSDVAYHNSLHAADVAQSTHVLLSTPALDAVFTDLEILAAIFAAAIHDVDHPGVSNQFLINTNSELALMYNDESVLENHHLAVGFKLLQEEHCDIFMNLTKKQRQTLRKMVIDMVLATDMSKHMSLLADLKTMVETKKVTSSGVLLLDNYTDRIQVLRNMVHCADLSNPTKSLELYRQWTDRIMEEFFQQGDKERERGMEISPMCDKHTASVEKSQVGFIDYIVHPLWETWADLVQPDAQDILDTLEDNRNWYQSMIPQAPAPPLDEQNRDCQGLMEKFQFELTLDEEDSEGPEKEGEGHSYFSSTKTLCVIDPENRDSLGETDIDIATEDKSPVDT

Human PDE4D7* (S129D) = Human PDE4D7* (S129D) (Homo sapiens, UniProt Q08499, S190D/S715A/S717A); experiment: PDE4 enzyme inhibition assay
Sequence of Human PDE4D7* (S129D) (Q08499 1-748 isoform Q08499-11 S129D/S654A/S656A): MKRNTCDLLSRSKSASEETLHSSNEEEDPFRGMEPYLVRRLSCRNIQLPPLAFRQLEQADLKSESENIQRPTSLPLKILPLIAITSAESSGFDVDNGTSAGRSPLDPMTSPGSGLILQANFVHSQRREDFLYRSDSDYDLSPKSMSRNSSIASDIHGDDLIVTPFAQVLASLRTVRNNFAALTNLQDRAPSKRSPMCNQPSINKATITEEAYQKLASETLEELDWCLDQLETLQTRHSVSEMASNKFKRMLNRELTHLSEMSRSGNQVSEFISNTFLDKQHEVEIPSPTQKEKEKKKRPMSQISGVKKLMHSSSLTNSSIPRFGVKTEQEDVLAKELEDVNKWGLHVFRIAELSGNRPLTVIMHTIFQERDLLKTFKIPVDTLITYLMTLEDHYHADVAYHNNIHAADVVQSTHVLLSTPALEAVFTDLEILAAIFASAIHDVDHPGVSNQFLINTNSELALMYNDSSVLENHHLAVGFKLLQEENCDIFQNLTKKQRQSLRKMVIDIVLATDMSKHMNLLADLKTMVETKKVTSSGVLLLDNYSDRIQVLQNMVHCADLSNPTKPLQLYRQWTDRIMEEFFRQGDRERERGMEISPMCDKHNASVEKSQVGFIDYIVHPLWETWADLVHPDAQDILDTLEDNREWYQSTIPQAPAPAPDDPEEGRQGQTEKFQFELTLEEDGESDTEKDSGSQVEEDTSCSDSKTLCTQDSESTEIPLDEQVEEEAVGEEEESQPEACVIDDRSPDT

[5] = test system: panel of GPCRs and other binding sites; experiment: NIMH Psychoactive Drug Screening Panel
[6] = molecular target: serotonin 5-HT2B receptor (Homo sapiens, UniProt P41595); experiment: NIMH Psychoactive Drug Screening Panel, hit; assay type: binding
Sequence of serotonin 5-HT2B receptor (P41595 whole entry): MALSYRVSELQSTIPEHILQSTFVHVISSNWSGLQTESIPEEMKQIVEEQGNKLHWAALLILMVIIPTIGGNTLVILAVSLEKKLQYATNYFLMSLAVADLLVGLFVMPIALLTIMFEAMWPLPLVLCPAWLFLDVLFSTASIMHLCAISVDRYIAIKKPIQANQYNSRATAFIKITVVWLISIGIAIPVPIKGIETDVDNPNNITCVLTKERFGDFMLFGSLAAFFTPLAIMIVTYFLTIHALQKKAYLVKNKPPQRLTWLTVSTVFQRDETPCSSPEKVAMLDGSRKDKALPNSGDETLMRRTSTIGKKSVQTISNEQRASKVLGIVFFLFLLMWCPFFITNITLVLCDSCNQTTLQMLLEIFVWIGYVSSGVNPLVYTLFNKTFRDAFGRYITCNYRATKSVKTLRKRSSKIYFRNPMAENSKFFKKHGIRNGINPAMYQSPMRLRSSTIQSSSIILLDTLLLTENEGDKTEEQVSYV

Sequence of PDE4D (Homo sapiens, UniProt Q08499) (Q08499 307-809 limits assumed): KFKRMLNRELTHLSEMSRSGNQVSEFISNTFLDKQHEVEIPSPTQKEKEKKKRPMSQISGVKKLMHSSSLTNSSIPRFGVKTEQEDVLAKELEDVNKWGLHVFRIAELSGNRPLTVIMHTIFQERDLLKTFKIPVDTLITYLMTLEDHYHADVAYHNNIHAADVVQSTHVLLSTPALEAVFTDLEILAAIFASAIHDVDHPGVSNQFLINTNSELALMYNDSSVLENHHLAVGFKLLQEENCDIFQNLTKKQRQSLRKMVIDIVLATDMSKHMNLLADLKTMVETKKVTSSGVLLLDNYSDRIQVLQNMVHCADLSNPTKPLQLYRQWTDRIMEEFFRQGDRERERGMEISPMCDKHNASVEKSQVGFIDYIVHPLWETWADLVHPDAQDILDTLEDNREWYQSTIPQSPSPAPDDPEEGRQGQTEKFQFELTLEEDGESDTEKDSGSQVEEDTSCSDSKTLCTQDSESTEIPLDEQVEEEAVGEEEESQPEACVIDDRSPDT

Structure (SMILES) | logD [3] | SUV, brain uptake in mice [4] [SUV] | IC50 (PDE4B1 (S133D)) [nM] | other results
O=C(O)Cc1ccc(Cc2cc(-c3cccc(Cl)c3)nc(C(F)(F)F)c2)cc1 [BPN14770] | – | – | – | PDE4D target occupancy (Lassen plot) (PDE4D [1]; radioligand [11C]T1650, blocking dose 3 mg/kg i.v.): 63%; receptor occupancy at 50 mg (PDE4D [2]): ~40%
COc1ccc(Cc2ccncc2)nc1-c1cccc(Cl)c1 [Compound 3, 2-(3-chlorophenyl)-3-methoxy-6-[(pyridin-4-yl)methyl]pyridine] | 3.45 | 0.94 | 720 | –
Cn1cc(Cc2ccc(OC(F)F)c(-c3cccc(Cl)c3)n2)cn1 [Compound 4, 2-(3-chlorophenyl)-3-(difluoromethoxy)-6-[(1-methyl-1H-pyrazol-4-yl)methyl]pyridine] | 3.07 | 1.44 | 858 | IC50 (Human PDE4D7* (S129D)): 0.5 nM
COc1ccc(Cc2ccncc2)nc1-c1cccc([N+](=O)[O-])c1 [Compound 5, 3-methoxy-2-(3-nitrophenyl)-6-[(pyridin-4-yl)methyl]pyridine] | 3.38 | 1.76 | 280 | –
COc1ccc(Cc2cn[nH]c2)nc1-c1cccc([N+](=O)[O-])c1 [Compound 6] | 2.89 | 1.76 | 1120 | off-target binding activity [5]: did not reveal significant off-target binding activity; IC50 [6]: 766 nM
COc1ccc(C2CNC(=O)C2)cc1OC1CCCC1 (centres unmarked) [rolipram] | – | – | – | PDE4D target occupancy (Lassen plot) (PDE4D [1]; radioligand [11C]T1650, blocking dose 0.2 mg/kg i.v.): 63%; PDE4D target occupancy (Lassen plot) (PDE4D [1]; radioligand [11C]T1650, blocking dose 1.0 mg/kg i.v.): 93%; PDE4D target occupancy (Lassen plot) (PDE4D [1]; radioligand [11C]T1660, rolipram 1.0 mg/kg i.v.): 79%
